Data: patent publication US6136323A, “Bacterial plasmin receptors as fibrinolytic agents” (University of Florida Research Foundation, Inc., priority 1994, dated 2000)

Legend:
[1] = test system: Mr ≈41,000 dalton plasmin binding protein of strain 64/14; assay: Western blot probed with 125I-human plasmin in presence or absence of EACA; design: species or system group A streptococcus; conditions: 1.0 mM EACA
Description: (§1) Gels intended for Western blotting were equilibrated in 25 mM Tris, 0.2 M glycine pH 8.0 containing 20% v/v methanol (electroblot buffer) for 25 minutes. Protein blotting, from SDS-PAGE gels, was performed using the `Trans-Blot SD Semi-Dry` electrophoretic transfer cell (Bio Rad, Richmond, Calif.). Blots were blocked as described for the dot-blot procedure, and probed for 3-4 hours at room temperature with radiolabeled human plasmin in either the presence or absence of 1.0 mM EACA, to identify functionally active protein bands. In studies of antigenic properties of these proteins, blots were probed with rabbit anti-plasmin receptor antibody or anti-group C streptokinase antibody by incubation with […] IgG per ml of probing solution (approximately a 1:3000 dilution of antisera) for three hours and probed with ^125 I-streptococcal protein G containing 3×10^4 cpm/ml. For probing with mouse monoclonal antibodies specific for epitopes on group C streptokinase, blots were probed with a 1:100 dilution of the monoclonal antibody stock solution for three hours, followed by probing with goat antibody specific for mouse IgG at 1.0 μg/ml, followed by probing with ^125 I-streptococcal protein G containing 3×10^4 cpm/ml. Blots were then washed with 0.01 M EDTA pH 7.3, containing 1.0 M NaCl, 0.25% gelatin, 0.15% Tween 20. […]

[2] = test system: plasmin prebound to the group A streptococcus; assay: Dissociation of prebound plasmin from bacteria by amino acids; conditions: compared with concentration inhibiting binding by 50%
Description: The ability of EACA, lysine, or arginine to dissociate bound plasmin from the bacteria was examined in the following manner. Labeled plasmin was incubated with 10^7 bacteria in VBS-gel containing no amino acid at 37 C for 15 min. The bacteria were pelleted by centrifugation and washed twice with 2 ml on VBS-gel. After determining the radioactivity associated with the bacteria, the pellets were resuspended in solutions of VBS-gel containing varying concentrations of amino acid (pH 7.0) as described above. The mixtures were incubated at 37 C for 15 min and washed twice with VBS-gel containing the appropriate amino acid concentration. The radioactivity associated with the bacteria in duplicate experiments was again measured and the percentage dissociated was calculated.

group C streptokinase = assay: Western blot probed with 125I-human plasmin in presence or absence of EACA; type: binding, group C streptococci; conditions: addition of EACA (1.0 mM)
Description: as §1

[3] = biological target: binding of plasmin to the group A streptococcus 64/14; assay: Inhibition of plasmin binding to bacteria by amino acids; conditions: pH 7.0, 37 C, 15 min, strain 64/14; read-out: concentration giving fifty percent inhibition of binding of plasmin to the bacteria
Description: Labeled plasmin (100 μl containing approximately 2×10^4 cpm) was added to 200 μl VBS-gel containing varying concentrations of epsilon-aminocaproic acid (EACA), lysine, or arginine, and incubated at 37 C for 15 min. The pH of each solution was 7.0. One hundred μl of VBS-gel containing 10^7 bacteria (strain 64/14) were then added and the mixture was incubated at 37 C for 15 min. The bacterial suspensions were centrifuged at 1000 g for 7 min and washed twice with 2 ml of VBS-gel containing the same concentration of amino acid present during the incubation period. The percent inhibition of binding was calculated for duplicate experiments by comparison with binding in VBS-gel alone.

[4] = test system: Mr 48,000 plasminogen activator protein from strain 64/14; assay: Western blot probed with 125I-human plasmin in presence or absence of EACA; type: binding, group A streptococcus; conditions: addition of EACA (1.0 mM)
Description: as §1

[5] = test system: plasmin bound to strain 64/14; assay: Preparative elution of bound labeled plasmin from strain 64/14 with lysine; type: binding, group A streptococcus; conditions: 20 mM lysine in VBS-gel, room temperature, 30 min
Description: Plasmin which had been bound to and eluted from strain 64/14 by treatment with lysine was also examined in similar binding studies. Eluted plasmin was obtained by incubating 2 ml of stock 10% wet weight/volume bacterial suspension (strain 64/14) with approximately 20 μg of labeled plasmin at room temperature for 45 min. This suspension was centrifuged at 1000 g for 10 min and washed once with 10 ml of VBS-gel, and the radioactivity associated with the bacterial pellet was measured. The pellet was then resuspended in VBS-gel containing 20 mM lysine and incubated at room temperature for 30 min. The suspension was centrifuged and the supernatant recovered. Approximately 90% of the radioactivity originally associated with the bacterial pellet was dissociated by the lysine treatment. The dissociated plasmin in the supernatant was the subjected to gel filtration of a G-25 column to separate lysine from plasmin. Fractions containing plasmin were collected and stored at -20 C.

[6] = test system: group A streptococcus 64/14; assay: Effect of pH and ionic strength on binding of labeled plasmin(ogen) to bacteria
Description: To assess the effect of pH on the bacterium: plasmin (ogen) interaction, 50 μl of labeled plasminogen of plasmin (approximately 2×10^4 cpm) were added to 1.0 ml of VBS containing 0.05% Tween-20 adjusted to the appropriate pH. After 15 min at room temperature, 50 μl of VBS containing approximately 10^7 bacteria (strain 64/14) were added and the mixture was incubated at 37 C for 15 min. The bacterial suspensions were centrifuged at 1000 g for 7 min to separate bacteria from unbound labeled proteins and the pellets were washed twice with 2 ml of VBS at the appropriate pH. The radioactivity associated with the bacterial pellet in duplicate experiments was measured using a Beckman 5500 autogamma counter.
To assess the effect of ionic strength on the bacterium:plasmin (ogen) interaction, similar studies were carried out in solutions containing different concentrations of NaCl with 0.05% Tween-20. The bacterial pellets were washed in the appropriate NaCl concentration to remove unbound labeled proteins.

[7] = test system: group A streptococci strain 64/14; assay: Effect of Ca2+ and Mg2+ on binding of radiolabeled plasmin to bacteria; design: species or system group A streptococcus; conditions: VBS-gel with 0.00015 M Ca2+ and 0.001 M Mg2+ vs metal free VBS-gel with 0.15 M EDTA
Description: Bindings of radiolabeled plasmin to group A streptococci strain 64/14 was studied in the following buffers: (1) VBS-gel containing 0.00015 M Ca^2+ and 0.001 M Mg^2+, or (2) metal free VBS-gel containing 0.15 M ethylenediaminetetraacetic acid (EDTA). In each case 400 μl of buffer was added to 100 μl of VBS-gel containing approximately 10^7 bacteria and 100 μl of VBS-gel containing 3×10^4 cpm of radiolabeled plasmin. After incubation at 37 C for 15 minutes, the mixtures were centrifuged at 1000 g for 7 min to separate bacteria from unbound radiolabel, the pellets were washed twice with 2 ml of the appropriate buffer, and radioactivity associated with the bacterial pellet in duplicate experiments was measured.

plasminogen = plasminogen (Homo sapiens, UniProt P00747); assay: Plasminogen activator activity of separated proteins; type: biochemical
plasminogen, sequence (P00747 20-810 limits assumed): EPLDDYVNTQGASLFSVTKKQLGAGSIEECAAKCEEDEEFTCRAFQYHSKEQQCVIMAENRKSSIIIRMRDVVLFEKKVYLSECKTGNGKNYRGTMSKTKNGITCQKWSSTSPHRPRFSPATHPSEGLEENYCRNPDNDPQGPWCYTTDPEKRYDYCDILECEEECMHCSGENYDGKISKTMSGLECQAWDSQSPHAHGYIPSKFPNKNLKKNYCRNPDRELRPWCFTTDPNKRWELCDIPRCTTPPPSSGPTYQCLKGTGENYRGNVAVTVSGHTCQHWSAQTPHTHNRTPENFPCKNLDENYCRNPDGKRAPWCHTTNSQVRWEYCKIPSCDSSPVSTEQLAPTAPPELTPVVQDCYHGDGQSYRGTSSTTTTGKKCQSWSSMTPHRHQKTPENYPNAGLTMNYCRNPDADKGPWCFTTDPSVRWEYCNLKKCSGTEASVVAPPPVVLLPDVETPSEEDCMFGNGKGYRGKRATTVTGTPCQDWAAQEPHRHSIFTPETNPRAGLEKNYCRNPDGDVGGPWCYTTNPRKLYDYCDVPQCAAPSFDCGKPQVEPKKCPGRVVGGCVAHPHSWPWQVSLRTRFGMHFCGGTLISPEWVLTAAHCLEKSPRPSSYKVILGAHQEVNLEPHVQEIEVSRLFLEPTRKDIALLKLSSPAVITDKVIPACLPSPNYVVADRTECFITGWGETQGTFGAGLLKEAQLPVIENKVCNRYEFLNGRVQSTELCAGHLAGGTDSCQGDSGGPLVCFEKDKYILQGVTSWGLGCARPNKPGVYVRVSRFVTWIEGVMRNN

human plasmin = biological target: T1, human plasmin (Homo sapiens, UniProt P00747); assay: Western blot probed with 125I-labeled human plasmin (plasmin binding activity); conditions: SDS-PAGE
T1 construct: from tissue
Description: PAGE and protein blotting. SDS-polyacrylamide gel electrophoresis (PAGE) was carried out with a 10% (wt/vol) polyacrylamide separating gel and a 4% (wt/vol) polyacrylamide stacking gel according to the method of Laemmli (Laemmli, U.K. [1970] Nature 227:680-685). Gels for Western blotting (immunoblotting) were equilibrated, and separated proteins were transferred by methods described previously (Broder et al. [1991], supra). For studies of plasmin binding, nitrocellulose membranes were blocked for 1 hour at room temperature in NET-gel buffer. The blots were then incubated for 2 hours at room temperature with ^125 I-human plasmin to identify plasmin-binding protein bands (Broder et al., supra). The blots were washed in NET-gel and subjected to autoradiography at -70 C.
Gels intended for Western blotting were equilibrated in 25 mM Tris, 0.2 M glycine pH 8.0 containing 20% v/v methanol (electroblot buffer) for 25 minutes. Protein blotting, from SDS-PAGE gels, was performed using the `Trans-Blot SD Semi-Dry` electrophoretic transfer cell (Bio Rad, Richmond, Calif.). Blots were blocked as described for the dot-blot procedure, and probed for 3-4 hours at room temperature with radiolabeled human plasmin in either the presence or absence of 1.0 mM EACA, to identify functionally active protein bands. […]

## NCCCCCC(=O)O [EACA, epsilon-aminocaproic acid]
[1]
  effect on binding of 125I-labeled human plasmin to the Mr ≈41,000 dalton protein in concentrated culture supernatant of strain 64/14: inhibited
  effect on plasmin binding activity of Mr ≈41,000 dalton band in the mutanolysin extract of strain 64/14: reduced significantly
[2]
  concentration of amino acid required to elute 50% of the bound plasmin: approximately equivalent
Group C streptokinase
  effect on binding of plasmin to the reference group C streptokinase molecule: no effect
[3]
  IC50: 150 µM
[4]
  effect on binding of plasmin to the Mr 48,000 plasminogen activator protein from strain 64/14: no effect

## N=C(N)NCCC[C@H](N)C(=O)O [arginine]
[2]
  concentration of amino acid required to elute 50% of the bound plasmin: approximately equivalent
[3]
  IC50: 25000 µM

## NCCCC[C@H](N)C(=O)O [lysine]
[2]
  concentration of amino acid required to elute 50% of the bound plasmin: approximately equivalent
[5]
  radioactivity originally associated with the bacterial pellet dissociated: Approximately 90%
[3]
  IC50: 2000 µM

## plasminogen
[6]; 0.1 to 0.4 M NaCl
  fraction bound to bacteria: less than 10%
[6]; entire pH range tested (pH 5-9)
  direct binding of offered counts to the bacteria: less than 10%
[6]; ionic strength below 0.075 M NaCl
  binding to the bacteria at low ionic strength: significant binding

B1: plasmin: Human plasmin generated from radiolabeled plasminogen by incubation with urokinase (protein, UniProt P00747 20-580; P00747 581-810, looked up)
Plasmin heavy chain A: EPLDDYVNTQGASLFSVTKKQLGAGSIEECAAKCEEDEEFTCRAFQYHSKEQQCVIMAENRKSSIIIRMRDVVLFEKKVYLSECKTGNGKNYRGTMSKTKNGITCQKWSSTSPHRPRFSPATHPSEGLEENYCRNPDNDPQGPWCYTTDPEKRYDYCDILECEEECMHCSGENYDGKISKTMSGLECQAWDSQSPHAHGYIPSKFPNKNLKKNYCRNPDRELRPWCFTTDPNKRWELCDIPRCTTPPPSSGPTYQCLKGTGENYRGNVAVTVSGHTCQHWSAQTPHTHNRTPENFPCKNLDENYCRNPDGKRAPWCHTTNSQVRWEYCKIPSCDSSPVSTEQLAPTAPPELTPVVQDCYHGDGQSYRGTSSTTTTGKKCQSWSSMTPHRHQKTPENYPNAGLTMNYCRNPDADKGPWCFTTDPSVRWEYCNLKKCSGTEASVVAPPPVVLLPDVETPSEEDCMFGNGKGYRGKRATTVTGTPCQDWAAQEPHRHSIFTPETNPRAGLEKNYCRNPDGDVGGPWCYTTNPRKLYDYCDVPQCAAPSFDCGKPQVEPKKCPGR
Plasmin light chain B: VVGGCVAHPHSWPWQVSLRTRFGMHFCGGTLISPEWVLTAAHCLEKSPRPSSYKVILGAHQEVNLEPHVQEIEVSRLFLEPTRKDIALLKLSSPAVITDKVIPACLPSPNYVVADRTECFITGWGETQGTFGAGLLKEAQLPVIENKVCNRYEFLNGRVQSTELCAGHLAGGTDSCQGDSGGPLVCFEKDKYILQGVTSWGLGCARPNKPGVYVRVSRFVTWIEGVMRNN
modifications: Plasmin radiolabeled
notes: Human plasmin generated from radiolabeled plasminogen by incubation with urokinase
[7]
  amount bound by the bacteria, effect of divalent cations: the same in the presence or absence of divalent cations
[6]; maximal binding, between pH 5 and 8, about 10^7 bacteria, 37 C, 15 min
  counts offered being bound by the group A streptococcus 64/14: approximately 60%

B2: plasmin receptor: Mr ≈41,000 dalton plasmin binding protein extracted with mutanolysin from group A streptococcal strain 64/14 (protein)
chain: MVVKVGINGFGRIGRLAFRRIQNIEGVEVTRINDLTDPNMLAHLLKYDTTQGRFDGTVEVKEGGFEVNGNFIKVSAERDPENIDWATDGVEIVLEATGFFAKKEAAEKHLHANGAKKVVITAPGGNDVKTVVFNTNHDILDGTETVISGASCTTNCLAPMAKALHDAFGIQKGLMTTIHAYTGDQMILDGPHRGGDLRRARAGAANIVPNSTGAAKAIGLVIPELNGKLDGAAQRVPVPTGSVTELVVTLDKNVSVDEINSAMKAASNDSFGYTEDPIVSSDIVGVSYGSLFDATQTKVMEVDGSQLVKVVSWYDNEMSYTAQLVRTLEYFAKIAK
plasminogen; affinity purified protein
  plasminogen activating potential: lacked any plasminogen activating potential
plasminogen; extracted (mutanolysin) preparation from strain 64/14
  plasminogen activator activity: no plasminogen activator activity
Human plasmin
  binding of 125I-labeled human plasmin on blot: capable of binding to human plasmin
Human plasmin; listed as Mr ≈41,000 dalton protein
  binding of 125I-labeled human plasmin on blot: retained fractional plasmin binding activity
